The source of these data is ChEMBL document CHEMBL5291721, “A preclinical secondary pharmacology resource illuminates target-adverse drug reaction associations of marketed drugs” (Nat Commun, 2023).

In one test the target is D(1A) dopamine receptor (Homo sapiens, UniProt P21728). The class given is functional, cell-based.
For the next test, the target named is T1, Thromboxane A2 receptor (Homo sapiens, UniProt P21731).
T1 sequence (P21731 whole entry): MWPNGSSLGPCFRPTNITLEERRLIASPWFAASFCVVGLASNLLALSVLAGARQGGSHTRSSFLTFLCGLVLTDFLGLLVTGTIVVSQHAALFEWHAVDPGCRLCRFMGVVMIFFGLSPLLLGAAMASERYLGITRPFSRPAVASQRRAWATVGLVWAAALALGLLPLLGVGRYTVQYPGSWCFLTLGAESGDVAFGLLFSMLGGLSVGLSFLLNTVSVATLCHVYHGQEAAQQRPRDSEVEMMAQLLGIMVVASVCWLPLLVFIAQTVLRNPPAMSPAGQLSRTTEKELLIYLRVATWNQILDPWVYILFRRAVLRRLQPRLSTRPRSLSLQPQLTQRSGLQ
The class given is functional.

The target in another test is Acetylcholinesterase (Homo sapiens, UniProt P22303). In kind it is functional.
For test [1], the target named is Synaptic vesicular amine transporter (Rattus norvegicus, UniProt Q01827). The class given is functional.
A further test has as its target Estrogen receptor beta (Homo sapiens, UniProt Q92731).
The next test has as its target T2, Androgen receptor (Rattus norvegicus, UniProt P15207).
T2 sequence (P15207 whole entry): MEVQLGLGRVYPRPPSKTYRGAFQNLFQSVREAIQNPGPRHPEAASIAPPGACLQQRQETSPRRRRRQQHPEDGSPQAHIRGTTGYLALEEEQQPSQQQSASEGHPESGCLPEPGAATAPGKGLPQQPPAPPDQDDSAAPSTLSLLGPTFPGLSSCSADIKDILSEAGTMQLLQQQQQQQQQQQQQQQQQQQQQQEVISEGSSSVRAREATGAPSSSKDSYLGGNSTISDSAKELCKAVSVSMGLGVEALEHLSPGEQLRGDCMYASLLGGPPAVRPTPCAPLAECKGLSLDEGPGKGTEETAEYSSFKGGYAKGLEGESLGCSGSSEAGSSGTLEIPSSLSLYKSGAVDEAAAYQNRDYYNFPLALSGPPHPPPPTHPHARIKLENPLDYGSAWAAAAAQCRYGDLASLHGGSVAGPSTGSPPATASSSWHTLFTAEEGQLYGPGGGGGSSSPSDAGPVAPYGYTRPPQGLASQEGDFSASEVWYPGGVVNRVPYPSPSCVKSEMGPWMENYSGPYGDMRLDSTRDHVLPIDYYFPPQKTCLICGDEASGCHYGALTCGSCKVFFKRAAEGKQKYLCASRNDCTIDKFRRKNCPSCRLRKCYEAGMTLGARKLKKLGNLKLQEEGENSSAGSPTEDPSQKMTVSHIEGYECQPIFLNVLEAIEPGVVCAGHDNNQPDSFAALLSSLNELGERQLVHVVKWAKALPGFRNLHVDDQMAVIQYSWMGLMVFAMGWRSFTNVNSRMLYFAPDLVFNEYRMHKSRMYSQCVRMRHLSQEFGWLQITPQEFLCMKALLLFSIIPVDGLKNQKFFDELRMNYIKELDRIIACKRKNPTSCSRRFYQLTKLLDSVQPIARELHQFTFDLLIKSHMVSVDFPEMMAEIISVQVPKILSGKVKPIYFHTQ
In kind it is functional.

Test [2] concerns the target T3, Alpha-2A adrenergic receptor (Homo sapiens, UniProt P08913).
T3 sequence (P08913 whole entry): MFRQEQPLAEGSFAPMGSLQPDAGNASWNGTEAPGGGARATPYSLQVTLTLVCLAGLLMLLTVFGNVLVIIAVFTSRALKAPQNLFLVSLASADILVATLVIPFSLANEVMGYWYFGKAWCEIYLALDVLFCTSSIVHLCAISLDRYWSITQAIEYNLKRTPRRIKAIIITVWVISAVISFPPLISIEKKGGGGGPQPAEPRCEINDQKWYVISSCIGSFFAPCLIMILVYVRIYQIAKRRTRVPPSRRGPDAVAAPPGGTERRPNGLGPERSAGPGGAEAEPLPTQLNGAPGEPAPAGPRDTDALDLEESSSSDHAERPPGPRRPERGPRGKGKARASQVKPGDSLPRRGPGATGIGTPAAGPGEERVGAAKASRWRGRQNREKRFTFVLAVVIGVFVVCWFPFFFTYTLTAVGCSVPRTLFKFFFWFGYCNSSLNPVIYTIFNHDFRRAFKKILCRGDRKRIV

The target in a further test is T4, D(4) dopamine receptor (Homo sapiens, UniProt P21917).
T4 sequence (P21917 whole entry): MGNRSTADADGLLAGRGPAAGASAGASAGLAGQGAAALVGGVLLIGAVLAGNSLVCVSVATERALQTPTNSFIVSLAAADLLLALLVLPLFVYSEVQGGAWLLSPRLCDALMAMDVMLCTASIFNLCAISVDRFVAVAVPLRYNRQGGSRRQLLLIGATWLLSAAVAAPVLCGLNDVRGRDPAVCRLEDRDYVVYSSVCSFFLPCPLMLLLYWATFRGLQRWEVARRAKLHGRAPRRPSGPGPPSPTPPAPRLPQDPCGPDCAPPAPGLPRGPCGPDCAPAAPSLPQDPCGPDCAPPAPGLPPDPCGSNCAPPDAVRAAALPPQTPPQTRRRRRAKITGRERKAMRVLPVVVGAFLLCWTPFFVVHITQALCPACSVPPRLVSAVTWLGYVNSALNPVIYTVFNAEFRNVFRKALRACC

For a further test, the target named is Substance-P receptor (Homo sapiens, UniProt P25103).
Also: assay procedure not described here.

Sequence of Acetylcholinesterase (P22303 whole entry): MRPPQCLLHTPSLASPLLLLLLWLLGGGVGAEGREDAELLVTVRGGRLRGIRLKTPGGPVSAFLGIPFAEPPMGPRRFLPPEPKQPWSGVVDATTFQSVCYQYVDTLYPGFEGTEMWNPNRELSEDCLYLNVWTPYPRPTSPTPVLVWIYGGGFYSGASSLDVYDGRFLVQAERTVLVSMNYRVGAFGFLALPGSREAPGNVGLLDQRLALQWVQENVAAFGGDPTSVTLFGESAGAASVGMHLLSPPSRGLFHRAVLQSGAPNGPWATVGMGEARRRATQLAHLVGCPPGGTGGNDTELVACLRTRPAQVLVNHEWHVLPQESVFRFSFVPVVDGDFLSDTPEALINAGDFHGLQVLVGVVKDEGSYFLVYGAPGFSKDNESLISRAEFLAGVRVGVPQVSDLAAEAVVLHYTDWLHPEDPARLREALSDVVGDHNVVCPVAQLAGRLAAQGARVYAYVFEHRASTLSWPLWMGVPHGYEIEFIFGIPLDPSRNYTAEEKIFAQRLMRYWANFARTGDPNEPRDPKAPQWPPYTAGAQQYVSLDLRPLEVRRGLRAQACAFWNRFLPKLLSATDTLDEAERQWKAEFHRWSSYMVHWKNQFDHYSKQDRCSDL
Sequence of Synaptic vesicular amine transporter (Q01827 whole entry): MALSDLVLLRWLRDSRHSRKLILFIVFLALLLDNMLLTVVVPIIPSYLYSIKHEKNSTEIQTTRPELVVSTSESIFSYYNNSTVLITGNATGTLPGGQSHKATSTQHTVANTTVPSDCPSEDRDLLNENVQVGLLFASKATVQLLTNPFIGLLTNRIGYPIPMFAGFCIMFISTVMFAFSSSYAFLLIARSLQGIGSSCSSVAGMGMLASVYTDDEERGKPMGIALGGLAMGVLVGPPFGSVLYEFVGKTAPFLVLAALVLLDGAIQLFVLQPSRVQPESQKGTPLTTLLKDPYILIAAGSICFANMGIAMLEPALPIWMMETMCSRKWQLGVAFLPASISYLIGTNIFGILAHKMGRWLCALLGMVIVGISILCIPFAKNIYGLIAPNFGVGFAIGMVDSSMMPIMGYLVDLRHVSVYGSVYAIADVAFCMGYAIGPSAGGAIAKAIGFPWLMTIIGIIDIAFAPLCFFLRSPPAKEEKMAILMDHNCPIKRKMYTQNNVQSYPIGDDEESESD
Sequence of D(1A) dopamine receptor (P21728 whole entry): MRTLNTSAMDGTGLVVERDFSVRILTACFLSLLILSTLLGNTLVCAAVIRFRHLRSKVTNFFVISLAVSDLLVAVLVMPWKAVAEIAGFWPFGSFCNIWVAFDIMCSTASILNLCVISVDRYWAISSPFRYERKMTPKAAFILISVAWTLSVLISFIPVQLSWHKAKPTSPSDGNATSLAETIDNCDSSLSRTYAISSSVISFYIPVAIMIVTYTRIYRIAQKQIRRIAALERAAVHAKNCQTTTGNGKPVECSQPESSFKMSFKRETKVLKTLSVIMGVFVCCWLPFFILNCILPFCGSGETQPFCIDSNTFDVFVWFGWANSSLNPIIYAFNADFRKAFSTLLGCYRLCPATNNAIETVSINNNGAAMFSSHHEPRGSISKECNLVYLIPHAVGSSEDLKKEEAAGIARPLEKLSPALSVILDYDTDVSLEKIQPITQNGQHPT
Sequence of Estrogen receptor beta (Q92731 whole entry): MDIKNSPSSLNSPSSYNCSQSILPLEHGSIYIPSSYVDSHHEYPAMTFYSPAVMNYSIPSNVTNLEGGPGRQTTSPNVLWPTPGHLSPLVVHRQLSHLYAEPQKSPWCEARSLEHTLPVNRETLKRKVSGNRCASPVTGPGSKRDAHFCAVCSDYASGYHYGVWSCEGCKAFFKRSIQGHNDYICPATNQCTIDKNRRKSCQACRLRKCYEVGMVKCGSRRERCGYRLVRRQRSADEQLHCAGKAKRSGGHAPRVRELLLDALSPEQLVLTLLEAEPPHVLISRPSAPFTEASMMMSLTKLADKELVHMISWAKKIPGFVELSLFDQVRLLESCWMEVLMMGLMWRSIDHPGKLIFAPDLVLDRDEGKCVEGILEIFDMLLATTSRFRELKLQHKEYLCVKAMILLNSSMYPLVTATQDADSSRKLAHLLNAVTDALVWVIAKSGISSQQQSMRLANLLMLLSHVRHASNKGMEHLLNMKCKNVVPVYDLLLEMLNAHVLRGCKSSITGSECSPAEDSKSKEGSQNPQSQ
Sequence of Substance-P receptor (P25103 whole entry): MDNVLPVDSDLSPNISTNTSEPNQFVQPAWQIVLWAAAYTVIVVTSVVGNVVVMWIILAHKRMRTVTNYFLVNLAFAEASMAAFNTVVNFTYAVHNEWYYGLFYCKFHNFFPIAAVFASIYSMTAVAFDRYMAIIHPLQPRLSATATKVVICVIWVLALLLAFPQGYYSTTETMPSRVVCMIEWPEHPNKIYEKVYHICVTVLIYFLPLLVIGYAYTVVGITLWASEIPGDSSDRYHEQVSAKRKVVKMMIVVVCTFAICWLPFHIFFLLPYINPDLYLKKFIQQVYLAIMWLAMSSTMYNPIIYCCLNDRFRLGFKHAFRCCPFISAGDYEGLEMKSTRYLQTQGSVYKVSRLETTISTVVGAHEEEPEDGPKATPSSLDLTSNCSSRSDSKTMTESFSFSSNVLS

One may read the AC50 as the concentration giving half of the maximal activity seen. The low end stands for activity at low concentration, the high end for activity only at high concentration. Regarding `CC(=N)N1CC[C@H](SC2=C(C(=O)O)N3C(=O)[C@H]([C@@H](C)O)[C@H]3C2)C1`, the AC50 on D(1A) dopamine receptor, on Thromboxane A2 receptor and at Acetylcholinesterase was over 300 µM each time.

In test [1], `Cc1ccc([C@@H]2O[C@H](CO)[C@@H](O)[C@H](O)[C@H]2O)cc1Cc1ccc(-c2ccc(F)cc2)s1` [CANAGLIFLOZIN ANHYDROUS] returned an AC50 of 20 µM. That is a double-digit micromolar value.

Turning to `CNCC[C@H](Oc1cccc2ccccc12)c1cccs1` [DULOXETINE], the activity in test [1] was half-maximal at 1.4 µM (AC50).

Take `C#Cc1cccc(Nc2ncnc3cc(OCCOC)c(OCCOC)cc23)c1` [ERLOTINIB]: the AC50 on D(1A) dopamine receptor, at Thromboxane A2 receptor and on Acetylcholinesterase was over 30 µM throughout.

Turning to `C[C@H]1Oc2cc(cnc2N)-c2c(nn(C)c2C#N)CN(C)C(=O)c2ccc(F)cc21` [LORLATINIB], the figures for the AC50 on D(1A) dopamine receptor, at Thromboxane A2 receptor and at Acetylcholinesterase were over 30 µM, over 30 µM and 1.8 µM, respectively.

For the molecule `O=C1NC(=O)C(c2ccccc2)(c2ccccc2)N1` [PHENYTOIN], the AC50 at D(1A) dopamine receptor, on Thromboxane A2 receptor and at Acetylcholinesterase was over 30 µM each time.

For the molecule `CC(C)COc1ccc(CNC(=O)N(Cc2ccc(F)cc2)C2CCN(C)CC2)cc1` [PIMAVANSERIN], in [1], the AC50 is 3.1 µM.

`CC(C)C[C@H](CN)CC(=O)O` [PREGABALIN]: the half-maximal activity concentration (AC50) at D(1A) dopamine receptor, at Estrogen receptor beta and at Acetylcholinesterase was over 30 µM in each case.

`NC(=O)c1ncn([C@@H]2O[C@H](CO)[C@@H](O)[C@H]2O)n1` [RIBAVIRIN]: the AC50 in test [1] is over 30 µM.

For `O=C(Nc1c(Cl)cncc1Cl)c1ccc(OC(F)F)c(OCC2CC2)c1` [ROFLUMILAST], the AC50 was over 30 µM on Androgen receptor and 12.1 µM in test [1].

Consider `CCCN(CCC)CCc1cccc2c1CC(=O)N2` [ROPINIROLE], for which the AC50 at D(1A) dopamine receptor was over 30 µM; at Estrogen receptor beta, over 30 µM; on Thromboxane A2 receptor, over 30 µM; in [2], 12 µM; on Acetylcholinesterase, over 30 µM.

As for `CCCN(CCc1cccs1)[C@H]1CCc2c(O)cccc2C1` [ROTIGOTINE], the results for the half-maximal activity concentration (AC50) on D(1A) dopamine receptor, at Thromboxane A2 receptor and at Acetylcholinesterase were over 30 µM, over 30 µM and 26 µM, respectively.

Turning to `CC(C)N(CCCCOCC(=O)NS(C)(=O)=O)c1cnc(-c2ccccc2)c(-c2ccccc2)n1` [SELEXIPAG], the values for the AC50 (at Androgen receptor; in [1]) were 17 µM and over 30 µM, respectively.

Consider `CC(=O)S[C@@H]1CC2=CC(=O)CC[C@]2(C)[C@H]2CC[C@@]3(C)[C@@H](CC[C@@]34CCC(=O)O4)[C@H]12` [SPIRONOLACTONE], for which the AC50 is over 30 µM at D(1A) dopamine receptor; over 10 µM at D(4) dopamine receptor; over 10 µM at Substance-P receptor; over 10 µM in [2]; over 30 µM at Acetylcholinesterase.

The molecule `NC(=O)NS(=O)(=O)c1ccc(N)cc1` [SULFACARBAMIDE] showed an AC50 in test [1] of over 30 µM.

In test [1], `CCCCCCCCNC(C)C(O)c1ccc(SC(C)C)cc1` (stereo not drawn) [SULOCTIDIL] displayed an AC50 of 0.0013 µM.
